Measured values as given in patent publication US20190247405A1, “TREATMENT OF SMA” (Hoffmann-La Roche Inc., priority 2016, published 2019).
Entries after “also recorded” stand apart in the source; their conditions may differ.

Assays:
[1] = tested on: patients aged 3-25 years with type 2 or non-ambulatory type 3 SMA; assay: Randomized, double-blind, placebo-controlled Phase 2 study (NCT01302600) of olesoxime; type: in vivo, human; details: 100 mg/ml oral liquid suspension, 10 mg/kg per day
Protocol: A randomized double blind, placebo-controlled, phase 2 study on olesoxime (NTC01302600) was performed on SMA type II and type III patients aged 3 to 25 years.
A randomized, double-blind, placebo-controlled, Phase 2 study (NCT01302600) was performed in 22 secondary care centres in Belgium, France, Germany, Italy, Netherlands, Poland and the UK. Safety and efficacy of olesoxime (TRO19622/RG6083) were assessed in patients aged 3-25 years with type 2 or non-ambulatory type 3 SMA confirmed by weakness and hypotonia, genetic diagnosis, Motor Function Measure (MFM) domains 1 and 2 (D1+D2) relative score (percentage of the maximum sum)≥15% and Hammersmith Functional Motor Scale (HFMS) score at baseline≥3 (non-ambulant≤38). […]
MFM is a validated quantitative scale allowing measurement of the functional motor abilities of an individual affected by a neuromuscular disease, regardless of the diagnosis and the extent of motor deficiencies (Vuillerot et al. Arch Phys Med Rehabil 2013; 94(8): 1555-61). […] Each item is scored on a 4-point (0-3) Likert type scale, where each option contains a clear indication of the level to which the patient has achieved the functional task and higher scores reflect better functional ability. […]
A total score, in addition to the three dimensions, can be calculated, with all scores expressed as a percentage of the maximum possible sum of the item scores. […]

[2] = tested on: MFM D1+D2 score in SMA patients; assay: Longitudinal kinetic-pharmacodynamic (KPD) exposure-response analysis and simulations on Phase 2 PK and MFM D1+D2 data; set-up: species or system human
Text: The pharmacokinetics (PK) and efficacy data from the herewith referred clinical trial study were used to investigate the relationship between olesoxime pharmacokinetic exposure (i.e., average trough concentration Caverage) and the primary efficacy outcome (i.e.: MFM D1+D2 score). A longitudinal kinetic-pharmacodynamic (KPD) approach was applied [Jacqmin et al., 2007]. In the placebo group the progression of the disease over time was best described by a linear function (slope of −0.0201 unit/week with relative standard error of 27%). […] (Data on file).
Simulations were conducted by using this exposure-response function and its associated uncertainty.

[3] = tested on: SMNF7/F7; NSE-Cre mice (SMA transgenic mice); assay: Survival and body weight in transgenic mouse model of SMA; type: in vivo; details: for mice still alive at 40 days: Conclusion section (vehicle 15%); for animals still alive after 40 days: Results section (vehicle 15%)
Text: Deletion of the smn gene is lethal in mice (early embryonic lethality). Mutant mice with deletion of smn exon7 restricted to neurons (NSE-Cre; SMNF7/F7, referred to here as SMA transgenic mice) are viable and display a phenotype similar to that described in human patients suffering from the severe types of spinal muscular atrophy (Frugier T., Tiziano F D et al. Hum Mol Genet. 2000, 9, 849-858.)
A pre-clinical study has been carried out on transgenic mouse model of SMA in the severe modelSMN^F7/F7; NSE-Cre with Olesoxime to test for signs of possible efficacy to treats SMA patients.
Endpoint scores included survival (daily observation), body weight (animals were weighed 3 times/week).
Olesoxime (powder) was mixed with Cremophore EL (SIGMA C5135), absolute ethanol (CARLO ERBA RPE 414571) and DMSO (ALLDRICH 27685-5) ([…], respective % of the final volume). After complete dissolution, PBS (phosphate buffered saline) was added (85% of the final volume). Solutions were prepared in volumes sufficient for 3 days; vehicle placebo consisted in the same mixture of excipients without the active principle. Daily treatment (subcutaneous injections, 10 ml/kg) started from P21 to death. Effected mice were killed by cervical dislocation when they became unable to feed, according to ethical considerations or around 45 days for control mice. Experiments were performed blind.
“log Rank”, also called “Mantel-Haenszel” was the statistic test being used to compare the two survival curves. It is a type “Khi2” test that was already available in the library “survival” from R. software (http://lib.stat.cmu.edu/R/CRAN).
The test was applied simultaneously on the 3 groups of mice and for all five stages.
All the mice which died before day 26 were removed from the study. There were 8 in total.

With CC(C)CCC[C@@H](C)[C@H]1CC[C@H]2[C@@H]3CCC4=CC(=NO)CC[C@]4(C)[C@H]3CC[C@]12C [olesoxime, Cholest-4-en-3-one oxime] the motor function ([1]; SMA type II and III patients) was “demonstrated potential to maintain motor function”, the tolerability ([1]; SMA type II and III patients aged 3 to 25 years) was “well tolerated” and the “slope of linear exposure-response relationship (average trough concentration vs MFM D1+D2 score)” value ([2]; KPD model, relative standard error of 36%) was 0.291 unit/ng/mL. For the same compound, the “plateau of effect in exposure-response relationship” value ([2]; at the dose of 10 mg) was “did not reach a plateau”, the “mice still alive at 40 days” value ([3]; 10 mg/kg daily s.c.) was 26% and the “animals still alive after 40 days” value ([3]; 10 mg/kg daily s.c.) was 25%. For the same compound, the “mice still alive at 40 days” value ([3]; 30 mg/kg daily s.c.) was 50%, the “animals still alive after 40 days” value ([3]; 30 mg/kg daily s.c.) was 45% and the “life span / survival” value ([3]; 30 mg/kg/day s.c. from day 21 to death, log rank test p<0.05 vs vehicle) was “significant increase in life span; also recorded: longer life span; also recorded: Improves Survival”. The body weight ([3]; 10 or 30 mg/kg daily s.c. vs vehicle) was “no difference in body weight”.
